{"source": "ChEMBL document CHEMBL1158446", "about": "“Antimitotic activity of lobaric acid and a new benzofuran, sakisacaulon A from Stereocaulon sasakii” (Bioorg Med Chem Lett, 2009)", "experiment": "Inhibition of tubulin polymerization", "note": "Calls of active or inactive are those of the source. The calls are words filed in the database; no cut-off is given here.", "data": [{"smiles": "CCCCCc1c(C)c(O)cc(O)c1Oc1cc(OC)cc2c1C(=O)OC2CCCC", "note": "(stereo not drawn)", "values": [{"measurement": "inhibition", "result": "inactive"}]}, {"smiles": "CCCCCc1c2c(cc(O)c1C(=O)O)OC(=O)c1c(cc(OC)cc1C(=O)CCCC)O2", "note": "[LOBARIC ACID]", "values": [{"measurement": "IC50", "result": 100, "unit": "µM"}]}, {"smiles": "CCCCCc1cc(O)cc(O)c1Oc1cc(OC)cc2c1C(=O)OC2(O)CCCC", "note": "(stereo not drawn)", "values": [{"measurement": "inhibition", "result": "inactive"}]}]}
